One test addresses T1, Jarid1B (Homo sapiens, UniProt Q9UGL1).
T1 construct: purchased BPS Bioscience or custom made by MolecularThroughput 50121
T1 sequence (Q9UGL1 2-751): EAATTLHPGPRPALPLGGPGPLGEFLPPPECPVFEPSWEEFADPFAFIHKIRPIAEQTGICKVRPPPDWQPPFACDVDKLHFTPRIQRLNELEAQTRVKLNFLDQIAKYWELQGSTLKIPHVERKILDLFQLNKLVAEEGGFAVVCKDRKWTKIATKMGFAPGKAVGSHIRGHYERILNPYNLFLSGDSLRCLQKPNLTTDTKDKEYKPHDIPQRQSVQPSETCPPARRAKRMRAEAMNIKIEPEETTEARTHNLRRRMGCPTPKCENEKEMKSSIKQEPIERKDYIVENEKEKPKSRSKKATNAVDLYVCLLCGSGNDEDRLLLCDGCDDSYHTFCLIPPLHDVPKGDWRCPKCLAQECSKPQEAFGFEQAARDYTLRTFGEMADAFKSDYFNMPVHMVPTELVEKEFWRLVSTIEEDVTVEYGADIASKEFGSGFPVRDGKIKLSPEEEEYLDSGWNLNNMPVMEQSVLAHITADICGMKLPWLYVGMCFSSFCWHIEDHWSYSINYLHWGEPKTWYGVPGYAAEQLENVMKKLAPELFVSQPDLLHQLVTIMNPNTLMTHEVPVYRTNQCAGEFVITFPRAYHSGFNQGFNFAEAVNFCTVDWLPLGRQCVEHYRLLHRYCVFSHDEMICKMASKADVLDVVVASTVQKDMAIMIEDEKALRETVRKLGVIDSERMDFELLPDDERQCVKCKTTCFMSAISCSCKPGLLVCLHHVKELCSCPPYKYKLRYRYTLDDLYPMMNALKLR
Kind of test: Jarid1B in vitro enzyme inhibition assay (TR-FRET). Format: biochemical. Put shortly:
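Jarid1B (AA 2-751, baculovirus-expressed) at 0.8 nM with 300 nM biotin-H3K4me3 peptide and 2 μM α-ketoglutarate in HEPES pH 7.3 with ascorbate and Fe(II), 30 min at room temperature. Stopped with EDTA; H3K4me1-2 product detected by TR-FRET (665/615 ratio) and IC50 fitted from 11-point dilutions.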

A further test concerns the target T2, JMJD2C (Homo sapiens, UniProt Q9H3R0).
T2 construct: purchased BPS Bioscience 50105
T2 sequence (Q9H3R0 2-372): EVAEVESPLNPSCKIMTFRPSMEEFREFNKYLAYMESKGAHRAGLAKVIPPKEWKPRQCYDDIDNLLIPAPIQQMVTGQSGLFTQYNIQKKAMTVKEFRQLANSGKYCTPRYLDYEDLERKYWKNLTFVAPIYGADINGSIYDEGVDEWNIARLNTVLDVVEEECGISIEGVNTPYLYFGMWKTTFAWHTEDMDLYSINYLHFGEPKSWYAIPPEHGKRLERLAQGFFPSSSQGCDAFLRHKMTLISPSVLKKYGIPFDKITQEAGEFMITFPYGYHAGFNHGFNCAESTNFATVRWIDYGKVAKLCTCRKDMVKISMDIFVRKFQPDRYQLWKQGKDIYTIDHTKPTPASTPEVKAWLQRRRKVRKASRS
Kind of test: JMJD2C in vitro enzyme inhibition assay (TR-FRET). Format: biochemical. In outline:
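Baculovirus-expressed human JMJD2C (AA 2-372) at 0.3 nM demethylated 300 nM biotin-H3K9me3 peptide with 2 μM alpha-ketoglutarate in HEPES pH 7.3 containing ascorbate and Fe(II), 30 min at room temperature. EDTA-stopped product was read by TR-FRET with Eu-anti-H3K9me2 and streptavidin-APC; 665/615 ratios from 11-point dilutions gave IC50.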

With `O=S(=O)(C1CC1)N1CC[C@H](n2cc(Oc3nc(O)c4ccncc4n3)cn2)C1` [Example 137, 2-({1-[(3S)-1-(cyclopropanesulfonyl)pyrrolidin-3-yl]-1H-pyrazol-4-yl}oxy)pyrido[3,4-d]pyrimidin-4-ol], the half-maximal inhibitory concentration (IC50) at Jarid1B and on JMJD2C was not above 100 nM throughout.
Take `Oc1nc(Oc2cnn(C(c3ccccc3)C3CC3)c2)nc2cnccc12` (stereo not drawn) [Example 116, 2-({1-[cyclopropyl(phenyl)methyl]-1H-pyrazol-4-yl}oxy)pyrido[3,4-d]pyrimidin-4-ol]: the concentration for half-maximal inhibition (IC50) against Jarid1B and against JMJD2C was not above 100 nM each time.
`O=S(=O)(C1CC1)N1CC[C@@H](n2cc(Oc3nc(O)c4ccncc4n3)cn2)C1` [Example 127, 2-({1-[(3R)-1-(cyclopropanesulfonyl)pyrrolidin-3-yl]-1H-pyrazol-4-yl}oxy)pyrido[3,4-d]pyrimidin-4-ol]: the IC50 against Jarid1B and against JMJD2C was not above 100 nM each time.
As for `CC(C)CCOc1nc(O)c2ccncc2n1` [Example 15, 2-(3-methylbutoxy)pyrido[3,4-d]pyrimidin-4-ol], the half-maximal inhibitory concentration (IC50) against Jarid1B was not above 100 nM; against JMJD2C it was 100 to 1000 nM.
With `Oc1nc(Oc2cnn(C3CCN(Cc4ccccc4)CC3)c2)nc2cnccc12` [Example 123, 2-{[1-(1-benzylpiperidin-4-yl)-1H-pyrazol-4-yl]oxy}pyrido[3,4-d]pyrimidin-4-ol], the IC50 at Jarid1B and against JMJD2C was not above 100 nM throughout.
On to `Oc1nc(OCCCC(F)(F)F)nc2cnccc12` [Example 20, 2-(4,4,4-trifluorobutoxy)pyrido[3,4-d]pyrimidin-4-ol], for which the half-maximal inhibitory concentration (IC50) against Jarid1B is not above 100 nM; against JMJD2C, 100 to 1000 nM.
In the same order, the values of `Oc1nc(Oc2cnn(Cc3cccc(Cl)c3)c2)nc2cnccc12` [Example 122, 2-({1-[(3-chlorophenyl)methyl]-1H-pyrazol-4-yl}oxy)pyrido[3,4-d]pyrimidin-4-ol] are not above 100 nM and not above 100 nM.
For the compound `Oc1nc(OCc2ccccc2Cl)nc2cnccc12` [Example 171, 2-[(2-chlorophenyl)methoxy]pyrido[3,4-d]pyrimidin-4-ol], the IC50 against Jarid1B is 100 to 1000 nM; at JMJD2C, not above 100 nM.
In the same order, the values of `CCS(=O)(=O)N1CCC[C@H](n2cc(Oc3nc(O)c4ccncc4n3)cn2)C1` [Example 161, 2-({1-[(3S)-1-(ethanesulfonyl)piperidin-3-yl]-1H-pyrazol-4-yl}oxy)pyrido[3,4-d]pyrimidin-4-ol] are not above 100 nM and not above 100 nM.
In the same order, the values of `Oc1nc(Oc2cnn([C@@H]3CCN(Cc4ccccc4)C3)c2)nc2cnccc12` [Example 133, 2-({1-[(3R)-1-benzylpyrrolidin-3-yl]-1H-pyrazol-4-yl}oxy)pyrido[3,4-d]pyrimidin-4-ol] are not above 100 nM and not above 100 nM.
For the compound `C[C@@H](c1ccccc1)n1cc(Oc2nc(O)c3ccncc3n2)cn1` [Example 118, 2-({1-[(1S)-1-phenylethyl]-1H-pyrazol-4-yl}oxypyrido) [3,4-d]pyrimidin-4-ol], the IC50 at Jarid1B and on JMJD2C was not above 100 nM throughout.
In the case of `Cn1cnc(-c2nccc3c(O)nc(OCc4ccc(C(F)(F)F)cc4)nc23)c1` [Example 111, 8-(1-methyl-1H-imidazol-4-yl)-2-{[4-(trifluoromethyl)phenyl]methoxy}pyrido[3,4-d]pyrimidin-4-ol], the concentration for half-maximal inhibition (IC50) against Jarid1B and at JMJD2C was 100 to 1000 nM in each case.
For the compound `Oc1nc(Oc2cnn([C@@H]3CCCNC3)c2)nc2cnccc12` [Example 149, 2-({1-[(3R)-piperidin-3-yl]-1H-pyrazol-4-yl}oxy)pyrido[3,4-d]pyrimidin-4-ol], the half-maximal inhibitory concentration (IC50) on Jarid1B and against JMJD2C was not above 100 nM each time.
`C[C@H](c1ccccc1F)n1cc(Oc2nc(O)c3ccncc3n2)cn1` [Example 119, 2-({1-[(1R)-1-(2-fluorophenyl)ethyl]-1H-pyrazol-4-yl}oxy)pyrido[3,4-d]pyrimidin-4-ol]: the IC50 against Jarid1B and against JMJD2C was not above 100 nM each time.
For `Oc1nc(Oc2cnn(Cc3ccccc3Cl)c2)nc2cnccc12` [Example 121, 2-({1-[(2-chlorophenyl)methyl]-1H-pyrazol-4-yl}oxy)pyrido[3,4-d]pyrimidin-4-ol], the 50% inhibitory concentration (IC50) against Jarid1B and on JMJD2C was not above 100 nM throughout.

Values taken from patent publication US10526327B2, “Histone demethylase inhibitors” (CELGENE QUANTICEL RESEARCH, INC., priority 2013, dated 2020).
